Assay [1] deals with activated PBMCs. Nature of the assay: Apoptosis of activated PBMCs, AnnexinV-PI FACS after MLR. The assay is classed as cell-based, human. Particulars: 1-day pretreatment, 5 days of MLR. As to the method:
Figure 1 AD2900 inhibits human lymphocyte proliferation in allogeneic activation (A, B) The levels of proliferative response of human peripheral blood lymphocytes (PBMCs) after 1-day pretreatment with different concentrations of AD2900, AD2750, YZ138, YZ158, and YZ297 (A) or AD2900, FTY720, and SEW2871 (B) were tested by human allogeneic mixed lymphocyte reaction (MLR) assay, followed by a [3H] thymidine incorporation analysis. (C) Apoptosis of AD2900-treated activated PBMCs was tested by AnnexinV-propidium iodide (PI) FACS analysis following 1-day AD2900 pretreatment and MLR. All the samples were compared to the untreated PBMC control. (D) IFN-γ secretion from activated PBMCs was tested by ELISA following a 1-day AD2900 pretreatment in MLR. On the 5th day of hMLR, supernatants were collected and assayed for the level of IFN-γ. (E) Jurkat cell viability after a 1-day treatment with different concentrations of AD2900, FTY720, and SEW2871 was tested by XTT viability assay. […]
Human PBLs were collected from human whole blood collected from healthy donors. […] For the thymidine incorporation assay, after 4 days of co-culture, cells were pulsed with ^3H-thymidine at 1 μCi (0.037MBq) per well (PerkinElmer, MA, USA) for 16 additional hours and then harvested onto glass-fiber filters. ^3H-thymidine incorporation was measured using Top Count. […]

Assay [2] relates to CCR7-expressing PBMCs. Nature of the assay: CCR7 surface expression on PBMCs, FACS. The assay is classed as cell-based, human. Particulars: 100 nM, 30-min treatment. As to the method: Figure 3 AD2900 downregulates the percentage of S1P1- and CCR7-expressing cells in PBMCs (A, B) The percentages of S1P1-positive PBMCs after the treatment with different concentrations of AD2900, FTY720, or SEW2871 and at different time points were examined by FACS analysis. S1P1 expression was tested in PBMCs after a 30-min treatment with AD2900 at different concentrations (A) or after a 30-min or 60-min treatment with 100 nM AD2900, FTY720, or SEW2871 (B). (C) The percentage of CCR7-positive PBMCs was tested by FACS analysis after a 30-min treatment with 100 nM AD2900, FTY720, or SEW2871. All the significances are compared to untreated PBMCs. Results summarize the results of at least four independent experiments. Results of Student’s t-test: *(P < 0.05, two-tailed test), ** (P < 0.01, two-tailed test), *** (P < 0.001, two-tailed test), **** (P < 0.0001, two-tailed test).
CCR7 is known as a lymph node homing receptor, and it is also involved in lymphocyte recirculation. Together with S1P1, CCR7 controls the circulation of lymphocytes between the SLOs and the blood or lymph. We therefore examined the effect of AD2900 on the level of CCR7-surface-expressing PBMCs.
Human PBMCs: For the apoptosis test, anti-AnnexinV-FITC (BD Biosciences, CA, USA) was used. […]

The values below come from article PMC5581131, “The novel sphingosine-1-phosphate receptors antagonist AD2900 affects lymphocyte activation and inhibits T-cell entry into the lymph nodes” (Oncotarget, 2017).

With `CCCCCCCCCCCCCCCCNC(CO)(CO)CO` [AD2900], in assay [1], the “concentrations at which apoptosis was induced on activated PBMCs” value was “above 10 μM”. Further, in assay [2], the “reduction of the normal percentage of CCR7-expressing cell population” value is on record as 22% ± 5%.
